Data published in US20050203176A1, “Carbamates as HIV anti-viral agents” (WYETH, priority 2004, published 2005).
Where two headings read alike, the source gives them in different places.

Key:
[1] = target: T1, HIV reverse transcriptase (RNase H activity) (Human immunodeficiency virus type 1 group M subtype B, UniProt P04585); assay: RNase H / HIV reverse transcriptase inhibition (fluorescent probe-target hybrid assay); format: biochemical; conditions: inhibition of HIV reverse transcriptase / RNase H, Table I
T1 construct: HIV reverse transcriptase has an RNase H domain at the C-terminus of its p66 subunit
Description: Preferably, the RNase H/HIV reverse transcriptase modulatory activity of the compounds of the present invention may be determined by the methods described in copending U.S. provisional patent Application No. 60/436,125, filed Dec. 19, 2003 and PCT Application Ser. No. WO 2004/059012, filed Dec. 22, 2003, published Jul. 15, 2004, entitled ASSAY FOR RNase ACTIVITY of Olsen et al., incorporated herein by reference in their entirety. Specifically, the modulatory activity of a carbamate derivative of the present invention may be determined by hybridizing a target nucleic acid to a fluorescently labeled oligonucleotide probe complementary to the target nucleic acid and containing a fluorophor at one terminus and a quenching group at the other terminus to obtain a probe-target hybrid, wherein (i) the unhybridized probe adopts a conformation that places the fluorophor and quencher in such proximity that the quencher quenches the fluorescent signal of the fluorophor, and (ii) the formation of the probe-target hybrid causes sufficient separation of the fluorophor and quencher to reduce quenching of the fluorescent signal of the fluorophor. Next, a first and second sample containing the probe-target hybrid are prepared. The probe-target hybrid of the first sample is then contacted with an RNase H enzyme (such as HIV reverse transcriptase) in an amount sufficient to selectively cleave the target nucleic acid and thereby release the intact probe. The probe-target hybrid of the second sample is also contacted with the RNase H enzyme in an amount sufficient to selectively cleave the target nucleic acid and thereby release the intact probe in the presence of a candidate carbamate derivative of the present invention. The release of the probe in each sample may then be detected by measuring the […] in the fluorescent signal of the fluorophor as compared to the signal of the probe-target hybrid. A comparison of the rate of the decrease in the fluorescent signal of the fluorophor in the two samples is made to determine whether there is a difference in the rate of the decrease in the two samples. […] This method is also useful to identify carbamate derivatives of the present invention, wherein candidate carbamate derivatives are screened for their ability to modulate RNase/HIV reverse transcriptase activity.

[2] = target: T2, HIV Reverse transcriptase (RT) p66/p51, RDDP activity (Human immunodeficiency virus type 1 group M subtype B, UniProt P04585); assay: RNA dependent DNA polymerase (RDDP) activity of HIV RT, 33P TTP incorporation with polyrA-oligodT12-18; format: biochemical
T2 construct: […]; purchased Worthington

HIV-1 infection = conditions: cited from earlier work

Compound: Cc1ccc(NC(=O)CSC(=S)N(Cc2ccccc2)Cc2ccccc2)c(C)c1 [Example 1, 2-[(2,4-dimethylphenyl)amino]-2-oxoethyl dibenzyldithiocarbamate]
- IC50 [1]: 3.1 µM
- IC50 [2]: 30 µM

Compound: N#Cc1cccc(NC(=O)CSC(=S)N(Cc2ccccc2)Cc2ccccc2)c1 [Example 3, 2-[(3-cyanophenyl)amino]-2-oxoethyl dibenzyldithiocarbamate]
- IC50 [1]: 4.7 µM
- IC50 [2]: > 80 µM

Compound: O=C(CSC(=S)N(Cc1ccccc1)Cc1ccccc1)Nc1ccc(Cl)c(Cl)c1Cl [Example 2, 2-oxo-2-[(2,3,4-trichlorophenyl)amino]ethyl dibenzyldithiocarbamate]
- IC50 [1]: 3.3 µM
- IC50 [2]: > 80 µM

Compound: N#Cc1cccc(NC(=O)CSC(=S)N(Cc2ccccc2)c2ccccc2)c1 [Example 6, 2-[(3-cyanophenyl)amino]-2-oxoethyl benzyl(phenyl)dithiocarbamate]
- IC50 [1]: 11.4 µM
- IC50 [2]: > 80 µM

Compound: 2-[(2,4-dimethylphenyl)amino]-2-oxoethyl dibenzyl(phenyl)dithiocarbamate [Example 8]
- IC50 [1]: 41.5 µM
- IC50 ([2]; inhibition of polymerase (RDDP) activity of HIV reverse transcriptase, Table II, read-out: IC50): > 80 µM

Compound: Cc1cn([C@H]2C[C@H](N=[N+]=[N-])[C@@H](CO)O2)c(=O)[nH]c1=O [AZT, zidovudine, reference compound]
- IC50 [2]: < 0.2 µM

Compound: CCN(CC)C(=S)S [diethyldicarbamate]
- patients who died during eighteen-month follow up (HIV-1 infection; 3 placebo patients had died from AIDS): none
- patients with AIDS at the end of the study (HIV-1 infection; HIV-1 patients Walter Reed stages 2-4, 24 weeks treatment, 6 of the placebo patients had AIDS): no patient
- disease progression (HIV-1 infection; HIV-1 patients, group that received the drug vs placebo): Significantly delayed disease progression

Compound: O=C(CSC(=S)N(Cc1ccccc1)c1ccccc1)Nc1ccc(Cl)c(Cl)c1Cl [Example 7, 2-oxo-2-[(2,3,4,-trichlorophenyl)amino]ethyl benzylphenyl dithiocarbamate]
- IC50 [1]: 26.6 µM
- IC50 [2]: > 80 µM

Compound: COc1ccc(C)cc1NC(=O)CSC(=S)N(Cc1ccccc1)c1ccccc1 [Example 5, 2-[(2-methoxy-5-methylphenyl)amino]-2-oxoethyl benzyl(phenyl)dithiocarbamate]
- IC50 [1]: 8.3 µM
- IC50 [2]: > 80 µM

Compound: COc1ccc(C)cc1NC(=O)CSC(=S)N(Cc1ccccc1)Cc1ccccc1 [Example 9]
- IC50 [1]: 46.2 µM
- IC50 [2]: > 80 µM

Compound: O=C(CSC(=S)N(Cc1ccccc1)Cc1ccccc1)Nc1ccc(Cl)cc1Cl [Example 4, 2-[(2,4-dichlorophenyl)amino]-2-oxoethyl dibenzyldithiocarbamate]
- IC50 [1]: 5.8 µM
- IC50 [2]: > 160 µM
